How the values were obtained:
STHdh^Q111/Q111 = assay: Serum deprivation survival of STHdh Q111/Q111 striatal neuroblasts (MTT); format: cell-based, mouse; details: STHdh Q111/Q111, 72 h
Description: Figure 4 In vitro neuroprotective action of VCE-003.2. (a) HiB5 cells were treated with quinolinic acid (QA; 2,5 mM) in the presence or the absence of VCE-003.2 (50 and 250 nM) and cell viability was determined after 24 h by the MTT assay. (b) QA-induced apoptosis measured by cleaved caspase 3 immunostaining (upper panel) of differentiating HiB5 cells was quantified in the presence or absence of VCE-003.2 (250 nM). Cell counts were referred to total cell nuclei counterstained with DAPI and c-caspase3^+ cell quantification is shown in the lower panel. […]. (d) Aggregation of mut-Htt was assessed by fluorescence microscopy in immortalized striatal STHdh transfected cells with a CFP-tagged expression vector of mutant huntingtin (mut-Htt) and counterstained with fluorescent phalloidin (upper panel). […]. Results are representative of three independent experiments. Values are expressed as means ± S. D. *p < 0.05 and ***p < 0.001 vs. Vehicle; ^#p < 0.05 ^##p < 0.01 vs. QA. […]
The HiB5 hippocampal progenitor cell line (kindly provided by Prof. Z. Kokaia, Lund Stem Cell Center, Sweden) was grown as described[46] in DMEM supplemented with 2 mM glutamine, 1% penicillin/streptomycin and 10% (v/v) fetal calf serum (FCS; Lonza, Switzerland). […] Cell viability was determined after 24 h using the 3-[4,5-dimethylthiazol-2-yl]-2,5-diphenyltetrazolium bromide (MTT) tesresults int. […]

PPARγ = target: T1, PPARγ (Homo sapiens, UniProt P37231); assay: biochemical; format: binding
T1 construct: purchased Life Technologies
T1 sequence (P37231 232-505 limits assumed): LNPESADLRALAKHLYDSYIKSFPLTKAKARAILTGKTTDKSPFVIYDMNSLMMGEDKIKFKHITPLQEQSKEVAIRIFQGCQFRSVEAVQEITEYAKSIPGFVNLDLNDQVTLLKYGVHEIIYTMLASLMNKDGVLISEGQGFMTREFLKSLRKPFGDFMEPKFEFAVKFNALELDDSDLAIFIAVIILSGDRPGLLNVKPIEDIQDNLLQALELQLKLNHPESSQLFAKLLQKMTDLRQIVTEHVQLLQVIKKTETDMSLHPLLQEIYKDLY
Description: The indicated concentrations were tested and results were plotted to obtain the polynomial trend on a logarithmic range. […] HEK293 cells were co-transfected with GAL4-PPARγ and GAL4-luc and incubated with the indicated compound concentrations for 6 hours prior to luciferase activity determination. Results are expressed as the fold induction ± S.D. relative to untreated control. […] All experiments are shown as mean ± S.D. from at least three independent experiments.
To determine PPARγ binding activity the PolarScreen^TM PPAR Competitor Assay kit (Life Technologies, CA, USA) was used following the manufacturer’s instructions. […] To study PPARγ transcriptional activity HEK293 cells were seeded in 24-well plates and transiently co-transfected with the expression vector GAL4-PPARγ and the luciferase reporter vector GAL4-luc using Roti-Fect (Carl Roth, Karlsruhe, Germany) following the manufacturer’s instructions. To correct for transfection efficacy, 100 ng Renilla luciferase (pRL-CMV) was also cotransfected. After stimulation, the luciferase activities were quantified using Dual-Luciferase Assay (Promega, Madison, WI, USA).

[1] = system: Human mesenchymal stem cells (MSC); assay: Adipogenic differentiation of human mesenchymal stem cells; format: cell-based
Excerpt: Figure 2 Effect of VCE-003.2 on adipogenic differentiation. Human mesenchymal stem cells (MSC) were differentiated in adipogenic medium (AM) in the presence of RZG or […] VCE-003.2 and adipogenic markers were characterized. (a) Quantification of oil red (ORO) positive cells after 21 days of differentiation. (b) Representative images of accumulated fat vesicles stained with oil red (Bar size, 50 μm). (c) Gene expression of PPAR-γ2, LPL, CEBPA, ADIPOQ and FABP4 in MSCs differentiated during 18 days. Data represent the percentage of increase over AM considered as the 100% of adipogenic induction. Experiments were performed from three different human MSC preparations each one obtained from a different bone marrow sample.
Reina Sofia University Hospital review board.

## CCCCCC1=C(NCC)C(=O)C(C/C=C(\C)CCC=C(C)C)=C(O)C1=O [VCE-003.2]
STHdh^Q111/Q111
  neuronal viability after serum deprivation: improved
PPARγ
  IC50: 1.2 µM
[1]; 1 and 2.5 μM vs 1 μM RZG, adipogenic medium, 21 days
  percentage of Oil Red O positive cells: never achieved the percentage of Oil Red O positive cells (ORO^+) induced by RZG
[1]; compared to RZG
  lipid droplets (morphological examination): lipid droplets are less numerous and smaller
[1]; compared to cells treated with RZG
  expression of adipogenic differentiation markers PPARγ, LPL, CEBPA, ADIPOQ, FABP4: sensibly lower

— publication PMC4949444 (Scientific Reports, 2016)
